Publication PMC6368403, “Identification of a bilirubin receptor that may mediate a component of cholestatic itch” (eLife, 2019)
Where “and” joins values, the source holds several entries; their conditions need not be identical. Equal entries are not always repeated. Each block holds one compound with its values, some of them ahead of it.

Legend:
[1] = target: T1, MRGPRC11 (Mus musculus, UniProt Q8CIP3); assay: Ca2+ imaging and concentration-Ca2+ response in HEK293 cells expressing MRGPRC11; type: cell-based; conditions: three replicates, Fig 2-N
T1 construct: expressed in transfected cells
T1 sequence (Q8CIP3 1-322): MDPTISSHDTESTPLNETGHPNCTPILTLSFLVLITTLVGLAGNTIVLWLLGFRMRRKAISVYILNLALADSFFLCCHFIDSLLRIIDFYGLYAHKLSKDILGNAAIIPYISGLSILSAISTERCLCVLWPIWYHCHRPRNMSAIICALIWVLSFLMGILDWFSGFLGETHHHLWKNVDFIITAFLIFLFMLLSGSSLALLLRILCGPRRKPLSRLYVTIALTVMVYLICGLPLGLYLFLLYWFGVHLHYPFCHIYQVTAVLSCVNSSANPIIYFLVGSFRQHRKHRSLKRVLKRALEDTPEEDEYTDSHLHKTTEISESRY
Protocol: (§1) All cultured cells were maintained in DMEM supplemented with 10% FBS and 1% Penicillin/Streptomycin at 37°C, 5% CO2. All data included were generated from cells tested for mycoplasma and found to be negative. Cells were imaged in calcium imaging buffer (CIB; 10 mM HEPES, 1.2 mM NaHCO3, 130 mM NaCl, 3 mM KCl, 2.5 mM CaCl2, 0.6 mM MgCl2, 20 mM glucose, and 20 mM sucrose at pH 7.4 and 290–300 mOsm). To monitor changes in intracellular [Ca^2+] ([Ca^2+]i), cells were loaded with either Fura 2-AM (HEK293 cells) or Fluo 4-AM (DRG neurons and mast cells) for 30 min in the dark at 37°C in CIB just prior to imaging. With Fura 2-AM, emission at 510 nm was monitored from excitation at both 340 nm and 380 nm. With Fluo 4-AM, emission at 520 nm was monitored from excitation at 488 nm. Cells were identified as responding if the intracellular [Ca^2+] rose by either 50% compared to baseline or 50% compared to the [Ca^2+]i change assayed during addition of 50 mM KCl (neurons only). Damaged, detached, high-baseline, and motion-activated cells were excluded from analysis.
In initial screens, HEK293 cells stably expressing the murine G-protein alpha-subunit Gα15, a unique Gα protein that non-selectively couples a large variety of GPCRs to phospholipase C ^30, were plated on poly-D-lysine-coated coverslips and transiently transfected with constructs encoding the MRGRPR of interest. 12–24 hr later, cells were loaded with the Fura 2-AM. Unless otherwise specified, compounds were perfused into the imaging chamber for approximately thirty seconds after a baseline period was established. Response was then monitored at 5 s intervals for an additional 60 s.
HEK293 cells stably expressing either MRGPRA1, MRGPRX4, and MRGRPC11 were seeded in poly-D-lysine-coated 96-well plates at 10,000 cells/well. Cells were loaded with Fura 2–AM, washed twice, and maintained in CIB. Haem metabolites were freshly dissolved in DMSO in dim light and then diluted into a buffer comprised of 20 mM Tris and 150 mM NaCl at pH 8.8. Potential changes in pH were evaluated prior to each experiment. EC50 values were determined from dose-responses performed in triplicate, repeated 2–4 times. To determine potential antagonism by QWF against bilirubin, cells were treated with varying doses of QWF for 1 min in CIB prior to application of agonist.
HEK293 stable cell lines expressing GFP-tagged MRGPRA3, MRGPRC11, MRGPRD, MRGPRX1, and MRGPRX2 were generated in previously described reports ([Liu et al., 2009]; [Liu et al., 2012]; [McNeil et al., 2015]). Briefly, plasmids containing the receptor of interest were transfected into HEK cells using Lipofectamine 3000. After 3 days, cells were then selected using 0.5 mg/mL G418. After 3 weeks, monoclonal colonies were established and each the highest expressing clones were identified. For this study, Mrgpra1 and MRGPRX4 were inserted into pEGFP-N1 and transfected into HEK293 cells. MRGPR-positive cells were selected using 0.5 mg/mL G418 for three weeks, after which GFP-positive cells were sorted by FACS and monoclonally expanded. Two lines expressing similar levels of MRGPRA1 and MRGPRX4, as measured by GFP fluorescence, were selected for study.

[2] = target: T1, MRGPRC11; assay: Microscale thermophoresis binding to MRGPRC11; conditions: mean of n=3, Fig 2-O
Protocol: Binding isotherms for MRGPRA1, MRGPRX4, and MRGRPC11 towards various ligands were determined by microscale thermophoresis with the NanoTemper monolith NT.115 instrument ([Duhr and Braun, 2006]). Ligands were pre-incubated with 10 µM of the GFP-tagged receptor of interest for 5 min at room temperature in binding buffer (20 mM Tris and 150 mM NaCl at pH 8.8). Receptors were crudely purified as a membrane fraction from cells stably expressing the receptor ([Vasavda et al., 2017]). Haem metabolites were freshly dissolved in 0.1 M NaOH in dim light and then diluted into assay buffer. Lyophilized BAM8-22 was dissolved in binding buffer. The pH of each ligand was evaluated prior to incubation with a receptor. Samples were loaded into NT.115 Hydrophobic-Treated Capillaries from NanoTemper. Microscale thermophoretic experiments were executed using 20% LED power and 15% MST power. KDs were calculated using the law of mass action with data from three independent experiments. Binding between bilirubin and receptors was evaluated purely thermophoretically, whereas binding between BAM8-22 and MRGPRC11 was evaluated by T-Jump. Samples with dramatic deviations in initial fluorescence were excluded.

[3] = test system: DRG neurons; assay: Ca2+ imaging of cultured DRG neurons; type: cell-based, mouse
Protocol: as §1, with “All data included were generated from cells tested for mycoplasma and found to be negative.” left out
DRGs were incubated with Fluo-4 AM 24 hr after dissociation (native genotype) or 48 hr after dissociation (virally transduced). Unless otherwise noted, cells were imaged for 20 seconds to establish a baseline before compounds were added. After 30 s, a 2 min wash was applied before addition of another substances. At the end of every imaging trial, 50 mM KCl was added as a positive control. […] For ruthenium red inhibitor experiments, neurons were incubated with 10 µM ruthenium red for 5 min prior to imaging. Percentage activated was determined as earlier described.
DRG neurons from all spinal levels were collected in cold DH10 media (90% Dulbecco’s modified Eagle’s medium (DMEM)/F-12, 10% FBS, penicillin (100 U/mL), and streptomycin (100 μg/mL)). DRGs were digested with a dispase (5 mg/ml)/collagenase type I (1 mg/ml) enzyme mixture at 37°C for 45 min. After trituration, cells were spun at 300 g and re-suspended in DH10 before being plated on glass coverslips coated with poly-D-lysine (0.5 mg/ml) and laminin (10 μg/ml, Invitrogen). DRGs were cultured with DH10 supplemented with 50 ng/mL NGF at 37°C.

[4] = test system: mice; assay: Cheek injection model: scratching bouts and wiping; type: in vivo, mouse; conditions: injected into cheek: 1.3 mM deoxycholic acid, 4 mM LPA
Protocol: All applicable behavioral tests were performed and analysed with the experimenter blind to genotype. […] There were no significant differences in itch between male and female mice. […] On the day before the experiment, animals were placed in the test chamber for 30 min before being subjected to a series of three mock injections with 5 min break periods in between. On the day of the experiment, animals were first allowed to acclimatize to the test chamber for 10 min before injection. […] A bout of scratching was defined as a continuous scratching movement with either hindpaw directed at the area of the injection site. In the cheek injection model, a wipe was defined as a single forepaw stroking the site of the injection. Use of both forepaws on the face or cheek was considered as grooming behavior. […] For H1R block, 30 mg/kg of cetirizine HCl (pH 7.4) was given intraperitoneally thirty minutes prior to injection of bilirubin. Licking behavior was quantified in seconds and identified as the licking of the toes or footpad of the hind paw site of injection that was neither preceded nor followed by licking of any other portion of the body.

Ca2+ response (concentration-Ca2+ response curve), replicate values ([1]; [Ligand] 1.95313e-7 M): 1.675 (2×) and 1.799
Ca2+ response (concentration-Ca2+ response curve), replicate values ([1]; [Ligand] 3.90625e-7 M): 1.633 and 1.596 and 1.826
Ca2+ response (concentration-Ca2+ response curve), replicate values ([1]; [Ligand] 7.8125e-7 M): 1.6619 and 1.688 and 1.837
Ca2+ response (concentration-Ca2+ response curve), replicate values ([1]; [Ligand] 1.5625e-6 M): 1.91 and 1.851 and 1.839
Ca2+ response (concentration-Ca2+ response curve), replicate values ([1]; [Ligand] 3.125e-6 M): 2.508 and 1.957 and 1.844
Ca2+ response (concentration-Ca2+ response curve), replicate values ([1]; [Ligand] 6.25e-6 M): 2.578 and 3.436 and 2.313
Ca2+ response (concentration-Ca2+ response curve), replicate values ([1]; [Ligand] 1.25e-5 M): 4.631 and 2.839 and 3.888
Ca2+ response (concentration-Ca2+ response curve), replicate values ([1]; [Ligand] 2.5e-5 M): 3.332 and 3.664 and 3.933
microscale thermophoresis response (binding isotherm), mean ([2]; [Ligand] 4.88e-8 M): 0.2221
microscale thermophoresis response (binding isotherm), mean ([2]; [Ligand] 9.77e-8 M): 0.7996
microscale thermophoresis response (binding isotherm), mean ([2]; [Ligand] 1.953e-7 M): 0.1618
microscale thermophoresis response (binding isotherm), mean ([2]; [Ligand] 3.906e-7 M): -0.3098
microscale thermophoresis response (binding isotherm), mean ([2]; [Ligand] 7.813e-7 M): -0.7916
microscale thermophoresis response (binding isotherm), mean ([2]; [Ligand] 1.5625e-6 M): -0.6624
microscale thermophoresis response (binding isotherm), mean ([2]; [Ligand] 3.125e-6 M): -0.9001
microscale thermophoresis response (binding isotherm), mean ([2]; [Ligand] 6.25e-6 M): -0.5948
microscale thermophoresis response (binding isotherm), mean ([2]; [Ligand] 1.25e-5 M): -2.488
microscale thermophoresis response (binding isotherm), mean ([2]; [Ligand] 2.5e-5 M): -2.079
microscale thermophoresis response (binding isotherm), mean ([2]; [Ligand] 5e-5 M): -2.779
microscale thermophoresis response (binding isotherm), mean ([2]; [Ligand] 0.0001 M): -3.797
Compound: BAM8-22 [reference compound]

Compound: N.N.N.N.N.N.N.N.N.N.N.N.N.N.[Cl-].[Cl-].[Cl-].[Cl-].[Cl-].[Cl-].[O-2].[O-2].[Ru+3].[Ru+3].[Ru+4] [ruthenium red, reference compound]
Effect on activation of sensory neurons by bilirubin ([3]; 10 µM ruthenium red, 50 µM bilirubin): prevented bilirubin from activating sensory neurons
Percent activated neurons by 50 µM bilirubin ([3]; WT neurons incubated with 10 µM ruthenium red (Fig 4G)): 0.73%

Compound: lysophosphatidic acid [LPA, reference compound]
Scratching in WT versus Mrgpr-cluster KO animals [4]: equivalent degrees of scratching in WT and Mrgpr-cluster KO animals

Compound: C[C@H](CCC(=O)O)[C@H]1CC[C@H]2[C@@H]3CC[C@@H]4C[C@H](O)CC[C@]4(C)[C@H]3C[C@H](O)[C@]12C [deoxycholic acid, reference compound]
Scratching in WT versus Mrgpr-cluster KO animals [4]: equivalent degrees of scratching in WT and Mrgpr-cluster KO animals
